In patent US20100267561A1, “HERBICIDAL PYRIDAZINONE DERIVATIVES” (priority 2007, published 2010):

How the values were obtained:
Assay in all cases: Test B pre-/postemergence plant response
Format in all cases: in vivo
[1] = tested on: blackgrass (Alopecurus myosuroides)
How it was run: (§1)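 Preemergence and postemergence (plants 2-18 cm, 1- to 4-leaf stage) applications used test chemicals in a non-phytotoxic solvent with surfactant. Plants were held in a greenhouse 13 to 15 days, then rated visually against controls on a 0-100 scale (0 no effect, 100 complete control).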

[2] = tested on: common (oilseed) sunflower (Helianthus annuus); conditions: Preemergence
How it was run: as §1

[3] = tested on: common ragweed (Ambrosia elation)
How it was run: as §1

[4] = tested on: eastern black (E.B.) nightshade (Solanum ptycanthum); conditions: Preemergence
How it was run: as §1

[5] = tested on: goosegrass (Eleusine indica)
How it was run: as §1

[6] = tested on: green foxtail (Setaria viridis)
How it was run: as §1

kochia (Kochia scoparia) = tested on: kochia (Kochia scoparia)
How it was run: as §1

[7] = tested on: lambsquarters (Chenopodium album)
How it was run: as §1

[8] = tested on: large crabgrass (Digitaria sanguinalis)
How it was run: as §1

[9] = tested on: morningglory (Ipomoea coccinea)
How it was run: as §1

soybean (Glycine max) = tested on: soybean (Glycine max)
How it was run: as §1

[10] = tested on: surinam grass (Brachiaria decumbens)
How it was run: as §1

[11] = tested on: wheat (Triticum aestivum)
How it was run: as §1

wild oat (Avena fatua) = tested on: wild oat (Avena fatua)
How it was run: as §1

[12] = Postemergence, 16 g ai/ha, scale 0 to 100
[13] = Postemergence, 31 g ai/ha, scale 0 to 100, 0 no effect, 100 complete control
[14] = Postemergence, 62 g ai/ha, scale 0 to 100
[15] = Postemergence, 125 g ai/ha, scale 0 to 100
[16] = Preemergence, 16 g ai/ha, scale 0 to 100 (0 no effect, 100 complete control)
[17] = Preemergence, 31 g ai/ha, 0 to 100 scale, 0 no effect, 100 complete control
[18] = Preemergence, 62 g ai/ha, scale 0 to 100
[19] = Preemergence, 125 g ai/ha, scale 0 to 100
[20] = 16 g ai/ha, scale 0 to 100 (0 no effect, 100 complete control)
[21] = 31 g ai/ha, 0 to 100 scale, 0 no effect, 100 complete control

CCc1cc(-c2ccc(C(F)(F)F)cc2)nn1-c1c(OC(=O)OC(C)C)cnn(C)c1=O [Compound 12]
40: Plant response rating, Goosegrass [5, 16] | Plant response rating, Lambsquarters [7, 15] | Plant response rating, Morningglory [9, 15]
50: Plant response rating, Nightshade, E. B. ([4]; 62 g ai/ha, scale 0 to 100)
60: Plant response rating, Oat, Wild (wild oat (Avena fatua); [16])
0: Plant response rating, Sunflower [2, 20] | Plant response rating, Sunflower [2, 21] | Plant response rating, Sunflower ([2]; 62 g ai/ha, scale 0 to 100) | Plant response rating, Sunflower ([2]; 125 g ai/ha, scale 0 to 100) | Plant response rating, Ragweed [3, 12] | Plant response rating, Ragweed [3, 13] | Plant response rating, Ragweed [3, 14] | Plant response rating, Ragweed [3, 15] | Plant response rating, Ragweed [3, 16] | Plant response rating, Ragweed [3, 17] | Plant response rating, Ragweed [3, 18] | Plant response rating, Ragweed [3, 19] | Plant response rating, Nightshade, E. B. [4, 20] | Plant response rating, Nightshade, E. B. [4, 21] | Plant response rating, Kochia (kochia (Kochia scoparia); [12]) | Plant response rating, Kochia (kochia (Kochia scoparia); [13]) | Plant response rating, Kochia (kochia (Kochia scoparia); [14]) | Plant response rating, Kochia (kochia (Kochia scoparia); [15]) | Plant response rating, Kochia (kochia (Kochia scoparia); [16]) | Plant response rating, Kochia (kochia (Kochia scoparia); [17]) | Plant response rating, Kochia (kochia (Kochia scoparia); [18]) | Plant response rating, Kochia (kochia (Kochia scoparia); [19]) | Plant response rating, Lambsquarters [7, 12] | Plant response rating, Lambsquarters [7, 13] | Plant response rating, Lambsquarters [7, 14] | Plant response rating, Lambsquarters [7, 16] | Plant response rating, Lambsquarters [7, 17] | Plant response rating, Lambsquarters [7, 19] | Plant response rating, Morningglory [9, 12] | Plant response rating, Morningglory [9, 13] | Plant response rating, Morningglory [9, 14] | Plant response rating, Morningglory [9, 16] | Plant response rating, Morningglory [9, 17] | Plant response rating, Morningglory [9, 18] | Plant response rating, Morningglory [9, 19] | Plant response rating, Soybean (soybean (Glycine max); [12]) | Plant response rating, Soybean (soybean (Glycine max); [13]) | Plant response rating, Soybean (soybean (Glycine max); [14]) | Plant response rating, Soybean (soybean (Glycine max); [15]) | Plant response rating, Soybean (soybean (Glycine max); [16]) | Plant response rating, Soybean (soybean (Glycine max); [17]) | Plant response rating, Soybean (soybean (Glycine max); [18]) | Plant response rating, Soybean (soybean (Glycine max); [19])
95: Plant response rating, Wheat [11, 13] | Plant response rating, Wheat [11, 14] | Plant response rating, Wheat [11, 18] | Plant response rating, Wheat [11, 19] | Plant response rating, Oat, Wild (wild oat (Avena fatua); [18])
85: Plant response rating, Nightshade, E. B. ([4]; 125 g ai/ha, scale 0 to 100) | Plant response rating, Foxtail, Green [6, 12]
98: Plant response rating, Blackgrass [1, 16] | Plant response rating, Goosegrass [5, 17] | Plant response rating, Oat, Wild (wild oat (Avena fatua); [19])
90: Plant response rating, Wheat [11, 12] | Plant response rating, Wheat [11, 17] | Plant response rating, Oat, Wild (wild oat (Avena fatua); [17])
20: Plant response rating, Wheat [11, 16]
100: Plant response rating, Blackgrass [1, 12] | Plant response rating, Blackgrass [1, 13] | Plant response rating, Blackgrass [1, 14] | Plant response rating, Blackgrass [1, 15] | Plant response rating, Blackgrass [1, 17] | Plant response rating, Blackgrass [1, 18] | Plant response rating, Blackgrass [1, 19] | Plant response rating, Goosegrass [5, 12] | Plant response rating, Goosegrass [5, 13] | Plant response rating, Goosegrass [5, 14] | Plant response rating, Goosegrass [5, 15] | Plant response rating, Goosegrass [5, 18] | Plant response rating, Goosegrass [5, 19] | Plant response rating, Foxtail, Green [6, 13] | Plant response rating, Foxtail, Green [6, 14] | Plant response rating, Foxtail, Green [6, 15] | Plant response rating, Foxtail, Green [6, 16] | Plant response rating, Foxtail, Green [6, 17] | Plant response rating, Foxtail, Green [6, 18] | Plant response rating, Foxtail, Green [6, 19] | Plant response rating, Crabgrass, Large [8, 12] | Plant response rating, Crabgrass, Large [8, 13] | Plant response rating, Crabgrass, Large [8, 14] | Plant response rating, Crabgrass, Large [8, 15] | Plant response rating, Crabgrass, Large [8, 16] | Plant response rating, Crabgrass, Large [8, 17] | Plant response rating, Crabgrass, Large [8, 18] | Plant response rating, Crabgrass, Large [8, 19] | Plant response rating, Surinam Grass [10, 12] | Plant response rating, Surinam Grass [10, 13] | Plant response rating, Surinam Grass [10, 14] | Plant response rating, Surinam Grass [10, 15] | Plant response rating, Surinam Grass [10, 16] | Plant response rating, Surinam Grass [10, 17] | Plant response rating, Surinam Grass [10, 18] | Plant response rating, Surinam Grass [10, 19] | Plant response rating, Wheat [11, 15] | Plant response rating, Oat, Wild (wild oat (Avena fatua); [12]) | Plant response rating, Oat, Wild (wild oat (Avena fatua); [13]) | Plant response rating, Oat, Wild (wild oat (Avena fatua); [14]) | Plant response rating, Oat, Wild (wild oat (Avena fatua); [15])
